{"source": "ChEMBL document CHEMBL1144161", "about": "“ortho-dihydroxyisoflavone derivatives from aged Doenjang (Korean fermented soypaste) and its radical scavenging activity” (Bioorg Med Chem Lett, 2008)", "key": {"[1]": {"tested_on": "Radical scavenging activity", "experiment": "Antioxidant activity assessed as DPPH radical scavenging activity after 30 mins", "type": "functional"}, "[2]": {"target": "T1, Xanthine dehydrogenase/oxidase (Homo sapiens, UniProt P47989)", "T1 sequence (P47989 whole entry)": "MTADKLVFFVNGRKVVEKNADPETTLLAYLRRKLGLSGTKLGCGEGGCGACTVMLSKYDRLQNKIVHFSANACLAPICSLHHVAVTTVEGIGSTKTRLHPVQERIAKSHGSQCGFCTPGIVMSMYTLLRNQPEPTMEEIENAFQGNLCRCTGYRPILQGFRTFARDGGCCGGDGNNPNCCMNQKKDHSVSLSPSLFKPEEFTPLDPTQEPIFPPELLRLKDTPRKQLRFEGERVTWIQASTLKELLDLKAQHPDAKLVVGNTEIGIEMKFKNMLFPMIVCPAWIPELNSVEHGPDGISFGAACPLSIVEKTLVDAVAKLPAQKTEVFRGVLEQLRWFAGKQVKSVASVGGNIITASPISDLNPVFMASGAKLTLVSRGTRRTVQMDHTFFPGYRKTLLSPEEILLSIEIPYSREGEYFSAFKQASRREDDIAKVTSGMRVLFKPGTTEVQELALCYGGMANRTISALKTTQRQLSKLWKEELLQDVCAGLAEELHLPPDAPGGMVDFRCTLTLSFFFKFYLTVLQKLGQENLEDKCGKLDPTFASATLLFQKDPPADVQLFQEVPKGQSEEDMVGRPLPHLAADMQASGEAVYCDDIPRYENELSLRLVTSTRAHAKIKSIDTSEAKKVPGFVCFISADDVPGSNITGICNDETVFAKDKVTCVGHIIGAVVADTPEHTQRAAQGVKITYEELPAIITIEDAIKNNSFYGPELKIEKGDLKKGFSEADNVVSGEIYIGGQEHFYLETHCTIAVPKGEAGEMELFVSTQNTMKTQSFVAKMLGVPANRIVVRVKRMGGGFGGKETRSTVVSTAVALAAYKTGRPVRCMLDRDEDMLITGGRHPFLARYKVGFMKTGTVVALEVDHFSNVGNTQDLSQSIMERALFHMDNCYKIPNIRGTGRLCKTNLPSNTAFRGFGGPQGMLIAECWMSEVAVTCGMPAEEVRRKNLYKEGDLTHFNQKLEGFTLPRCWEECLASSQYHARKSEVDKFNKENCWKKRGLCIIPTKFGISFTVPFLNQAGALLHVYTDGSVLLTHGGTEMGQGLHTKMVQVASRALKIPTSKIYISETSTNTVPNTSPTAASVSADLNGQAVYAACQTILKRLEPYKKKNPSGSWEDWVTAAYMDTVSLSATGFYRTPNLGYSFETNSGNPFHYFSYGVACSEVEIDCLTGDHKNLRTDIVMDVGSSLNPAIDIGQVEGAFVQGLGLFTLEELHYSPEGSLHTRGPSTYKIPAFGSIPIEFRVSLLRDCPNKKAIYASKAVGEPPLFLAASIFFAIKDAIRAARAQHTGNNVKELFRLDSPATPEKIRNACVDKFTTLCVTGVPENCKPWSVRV", "experiment": "Inhibition of xanthine oxidase assessed as decrease of uric acid generation"}, "[3]": {"target": "T1, Xanthine dehydrogenase/oxidase", "experiment": "Inhibition of xanthine oxidase assessed as decrease of superoxide generation"}}}
{"smiles": "O=c1c(-c2ccc(O)c(O)c2)coc2cc(O)ccc12", "values": [{"measurement": "IC50", "setting": "[1]", "result": 28.7, "unit": "µM"}, {"measurement": "IC50", "setting": "[2]", "result": "> 1000", "unit": "µM"}, {"measurement": "IC50", "setting": "[3]", "result": 16.8, "unit": "µM"}]}
{"smiles": "O=c1c(-c2ccc(O)cc2)coc2cc(O)c(O)cc12", "values": [{"measurement": "IC50", "setting": "[1]", "result": 32.6, "unit": "µM"}, {"measurement": "IC50", "setting": "[2]", "result": "> 1000", "unit": "µM"}, {"measurement": "IC50", "setting": "[3]", "result": "> 1000", "unit": "µM"}]}
{"smiles": "O=c1c(-c2ccc(O)cc2)coc2c(O)c(O)ccc12", "values": [{"measurement": "IC50", "setting": "[1]", "result": 21.5, "unit": "µM"}, {"measurement": "IC50", "setting": "[2]", "result": "> 1000", "unit": "µM"}, {"measurement": "IC50", "setting": "[3]", "result": 6.6, "unit": "µM"}]}
{"smiles": "O=C1O[C@H]([C@@H](O)CO)C(O)=C1O", "note": "[ASCORBIC ACID]", "values": [{"measurement": "IC50", "setting": "[1]", "result": 52.3, "unit": "µM"}]}
{"smiles": "O=c1c(-c2ccc(O)cc2)coc2cc(O)ccc12", "note": "[DAIDZEIN]", "values": [{"measurement": "IC50", "setting": "[2]", "result": "> 1000", "unit": "µM"}, {"measurement": "IC50", "setting": "[3]", "result": 430, "unit": "µM"}]}
{"smiles": "O=c1c(-c2ccc(O)cc2)coc2cc(O)cc(O)c12", "note": "[GENISTEIN]", "values": [{"measurement": "IC50", "setting": "[2]", "result": "> 1000", "unit": "µM"}, {"measurement": "IC50", "setting": "[3]", "result": 232, "unit": "µM"}]}
{"smiles": "COc1cc2c(=O)c(-c3ccc(O)cc3)coc2cc1O", "note": "[GLYCITEIN]", "values": [{"measurement": "IC50", "setting": "[2]", "result": "> 1000", "unit": "µM"}, {"measurement": "IC50", "setting": "[3]", "result": 683, "unit": "µM"}]}
{"smiles": "Cc1c(C)c2c(c(C)c1O)CCC(C)(C(=O)O)O2", "note": "(configuration not stated) [TROLOX]", "values": [{"measurement": "IC50", "setting": "[1]", "result": 48.9, "unit": "µM"}]}
